Converted amounts (≈) assume the structure as drawn. The source made the active and inactive calls. The rule behind the calls is not given here. Numbered stars: 1 amine (or outer) side, 2 acyl side, 3 side chain; on linkers, the order of the positions; unused ones are H or OH. Square brackets hold non-standard residues; d marks the D form. Peptide text beside a SMILES is read from it. * marks the point of attachment. X3 = CC(C)C[C@@H](CN(CC(N)=O)S(=O)(=O)c1ccc(C(F)(F)F)cc1)N*; X2 = CC(C)C[C@H](N)CN(CC(=O)[*:2])[*:1]; X1 = O=S(=O)(c1ccc(C(F)(F)F)cc1)*
Tests used:
Pseudomonas aeruginosa [1] = test: Additive antibacterial activity against multidrug-resistant Pseudomonas aeruginosa 124 assessed as fractional inhibitory concentration index in presence of polymyxin B by checkerboard assay; format: functional
Pseudomonas aeruginosa [2] = test: Antibacterial activity against Pseudomonas aeruginosa ATCC 27853 infected in C57BL/6 mouse pneumonia model assessed as […] at 2.5 to 10 mg/kg, ip administered for 1 to 48 hrs and measured after 3 days by H and E staining based analysis; format: functional, organism-based; conditions: dose 2.5-10 mg/kg, time 1-120 hrs
Staphylococcus aureus [3] = test: Antimicrobial activity against Staphylococcus aureus ATCC 25923 assessed as reduction in bacterial growth in presence of human serum; format: functional
Staphylococcus aureus [4] = test: Antimicrobial activity against methicillin-resistant Staphylococcus aureus 6 assessed as inhibition of visible bacterial growth incubated for 18 hrs by broth-dilution method; format: functional
Cell membrane [5] = test: Induction of membrane disruption in Staphylococcus aureus ATCC 33591 assessed as membrane shrinkage at 2 to 4 times MIC incubated for 24 hrs by SEM analysis; format: cell membranes
Staphylococcus aureus [6] = test: Antimicrobial activity against methicillin-resistant Staphylococcus aureus 7 assessed as inhibition of visible bacterial growth incubated for 18 hrs by broth-dilution method; format: functional
Pseudomonas aeruginosa [7] = test: Antimicrobial activity against multidrug-resistant Pseudomonas aeruginosa 050 assessed as inhibition of visible bacterial growth incubated for 18 hrs by broth-dilution method; format: functional
[8] = Toxicity in mouse at 40 mg/kg, sc measured for 5 to 1440 mins; format: organism-based; conditions: in vivo, time 5-1440 min
Pseudomonas aeruginosa [9] = test: Antibiofilm activity against Pseudomonas aeruginosa ATCC 27853 assessed as inhibition of biofilm formation at 4 to 8 microg/ml incubated for 24 hrs by crystal violet staining based analysis; format: functional; conditions: dose 4-8 µg/ml, at 4 to 8 µg/mL
Pseudomonas aeruginosa [10] = test: Induction of intracellular ROS accumulation in Pseudomonas aeruginosa ATCC 27853 by DCFH-DA dye based fluorescence assay; format: functional, organism-based
Pseudomonas aeruginosa [11] = test: Antimicrobial activity against Pseudomonas aeruginosa ATCC 27853 assessed as inhibition of visible bacterial growth incubated for 18 hrs by broth-dilution method; format: functional
Staphylococcus aureus [12] = test: Antimicrobial activity against methicillin-resistant Staphylococcus aureus 9 assessed as inhibition of visible bacterial growth incubated for 18 hrs by broth-dilution method; format: functional
Pseudomonas aeruginosa [13] = test: Antimicrobial activity against Pseudomonas aeruginosa ATCC 27853 at 1 times MIC incubated for 18 hrs in presence of LPS/LTA; format: functional, organism-based
Cell membrane [14] = test: Induction of membrane disruption in Pseudomonas aeruginosa ATCC 27853 assessed as membrane shrinkage at 2 to 4 times MIC incubated for 24 hrs by SEM analysis; format: cell membranes
Cell membrane [15] = test: Induction of membrane depolarization in methicillin-resistant Staphylococcus aureus ATCC 33591 assessed as increase in fluorescence intensity by DiSC35 dye-based fluorescence assay; format: cell membranes
[16] = test system: Staphylococcus epidermidis; test: Antimicrobial activity against Staphylococcus epidermidis ATCC 12228 assessed as inhibition of visible bacterial growth incubated for 18 hrs by broth-dilution method; format: functional
[17] = Toxicity in mouse assessed as spleen lesion at 20 mg/kg, ip measured for 30 to 60 mins by H and E staining based analysis; format: organism-based; conditions: in vivo, time 30-60 min
[18] = Stability in human serum assessed as half life measured for 5 hrs by RP-HPLC analysis; format: ADME, cell-free
Cell membrane [19] = test: Induction of membrane disruption in Pseudomonas aeruginosa ATCC 27853 assessed as membrane blebbing at 2 to 4 times MIC incubated for 24 hrs by SEM analysis; format: cell membranes
Pseudomonas aeruginosa [20] = test: Antibiofilm activity against Pseudomonas aeruginosa ATCC 27853 assessed as biofilm eradication at 4 times MIC incubated for 1 hr by crystal violet staining based assay; format: functional, organism-based
Pseudomonas aeruginosa [21] = test: Bactericidal activity against Pseudomonas aeruginosa ATCC 27853 at 1 to 4 times MIC by time-kill assay; format: functional, organism-based
Staphylococcus aureus [22] = test: Antibiofilm activity against methicillin-resistant Staphylococcus aureus ATCC 33591 assessed as biofilm eradication at 4 times MIC incubated for 2 hrs by crystal violet staining based assay; format: functional, organism-based
[23] = Toxicity in mouse assessed as animal survival at 20 mg/kg, ip measured for 7 days; format: organism-based; conditions: in vivo, 168 h, time 7 day
Pseudomonas aeruginosa [24] = test: Antibacterial activity against Pseudomonas aeruginosa ATCC 27853 infected in C57BL/6 mouse pneumonia model assessed as log reduction in bacterial load in lung at 5 mg/kg, ip administered for 1 to 48 hrs and measured after 3 days; format: functional; conditions: time 1-120 hrs
Bacillus subtilis = test: Antimicrobial activity against Bacillus subtilis ATCC 23857 assessed as inhibition of visible bacterial growth incubated for 18 hrs by broth-dilution method; format: functional
Pseudomonas aeruginosa [25] = test: Antibiofilm activity against Pseudomonas aeruginosa ATCC 27853 assessed as biofilm thickness at 2 times MIC90 incubated for 24 hrs by confocal laser scanning microscopic analysis; format: functional
[26] = Toxicity in mouse assessed as heart lesion at 20 mg/kg, ip measured for 30 to 60 mins by H and E staining based analysis; format: organism-based; conditions: in vivo, time 30-60 min
Pseudomonas aeruginosa [27] = test: Additive antibacterial activity against multidrug-resistant Pseudomonas aeruginosa 124 assessed as fractional inhibitory concentration index in presence of ceftazidime by checkerboard assay; format: functional
Pseudomonas aeruginosa [28] = test: Bactericidal activity against Pseudomonas aeruginosa ATCC 27853 assessed as reduction in viable bacteria at 4 times MIC measured for 1 min by time-kill assay; format: functional, organism-based
Staphylococcus aureus [29] = test: Antibacterial activity against methicillin-resistant Staphylococcus aureus ATCC 33591 infected in full-thickness wound BALB/c mouse model assessed as reduction in IL-6 level in skin at 0.25 to 1 mg/kg, ip administered for 1 to 48 hrs and measured after 3 days; format: functional, organism-based; conditions: dose 0.25-1 mg/kg, time 1-120 hrs
Staphylococcus aureus [30] = test: Antimicrobial activity against Staphylococcus aureus ATCC 25923 assessed as fold change in MIC in presence of salt solution; format: functional
Pseudomonas aeruginosa [31] = test: Antimicrobial activity against Pseudomonas aeruginosa ATCC 27853 assessed as reduction in microbial growth in presence of human serum; format: functional
Staphylococcus aureus [32] = test: Antibacterial activity against methicillin-resistant Staphylococcus aureus ATCC 33591 infected in full-thickness wound BALB/c mouse model assessed as log reduction in bacterial load at 0.25 mg/kg, ip administered for 1 to 48 hrs and measured after 3 days by SEM analysis; format: functional; conditions: time 1-120 hrs
Escherichia coli = test: Antimicrobial activity against Escherichia coli ATCC 25922 assessed as inhibition of visible bacterial growth incubated for 18 hrs by broth-dilution method; format: functional
Cell membrane [33] = test: Induction of membrane disruption in Staphylococcus aureus ATCC 33591 assessed as membrane blebbing at 2 to 4 times MIC incubated for 24 hrs by SEM analysis; format: cell membranes
Staphylococcus aureus [34] = test: Antimicrobial activity against methicillin-resistant Staphylococcus aureus ATCC 33591 assessed as reduction in bacterial growth in presence of human serum; format: functional
Staphylococcus aureus [35] = test: Synergistic antibacterial activity against methicillin-resistant Staphylococcus aureus S5 assessed as fractional inhibitory concentration index in presence of vancomycin by checkerboard assay; format: functional
Staphylococcus aureus [36] = test: Antibiofilm activity against methicillin-resistant Staphylococcus aureus ATCC 33591 assessed as inhibition of biofilm formation at 4 to 8 microg/ml incubated for 24 hrs by crystal violet staining based analysis; format: functional; conditions: dose 4-8 µg/ml, at 4 to 8 µg/mL
Staphylococcus aureus [37] = test: Synergistic antibacterial activity against Staphylococcus aureus ATCC 33591 assessed as fractional inhibitory concentration index in presence of polymyxin B by checkerboard assay; format: functional

Row | Structure (SMILES) | MIC (Staphylococcus aureus [3]) [µg/mL] | MIC (Staphylococcus aureus [4]) [µg/mL] | MIC (Staphylococcus aureus [6]) [µg/mL] | MIC (Pseudomonas aeruginosa [7]) [µg/mL] | inhibition (INH) (Pseudomonas aeruginosa [9]) [%] | Activity (Pseudomonas aeruginosa [10]) | MIC (Pseudomonas aeruginosa [11]) [µg/mL] | MIC (Staphylococcus aureus [12]) [µg/mL] | Activity (Pseudomonas aeruginosa [13]) | MIC [16] [µg/mL] | half-life [18] [h] | Activity (Pseudomonas aeruginosa [20]) | Activity (Pseudomonas aeruginosa [21]) | Activity (Staphylococcus aureus [22]) | MIC (Bacillus subtilis) [µg/mL] | Activity (Pseudomonas aeruginosa [25]) [um] | fold change (FC) (Staphylococcus aureus [30]) | MIC (Pseudomonas aeruginosa [31]) [µg/mL] | MIC (Escherichia coli) [µg/mL] | MIC (Staphylococcus aureus [34]) [µg/mL] | also measured
1 | CC(C)C[C@H](N)CN(CC(=O)N[C@@H](CCCCN)C(=O)N[C@@H](CC(C)C)C(=O)N[C@@H](CC(C)C)C(=O)N[C@@H](CCCCN)C(=O)N[C@@H](CCCCN)C(=O)N[C@@H](CC(C)C)C(=O)N[C@@H](CC(C)C)C(N)=O)S(=O)(=O)c1ccc(C(F)(F)F)cc1 (X1-[X2]KLLKKLL-NH2) | 8 | 4 (≈ 3.28 µM) | 4 (≈ 3.28 µM) | 4 (≈ 3.28 µM) | 50 | Active | 4 (≈ 3.28 µM) | 8 (≈ 6.56 µM) | inactive | 4 (≈ 3.28 µM) | 9.22 | Active | Active | Active | 4 (≈ 3.28 µM) | 20 | 0.25 | 8 | 16 (≈ 13.1 µM) | 8 | fractional inhibitory concentration index (FICI) (Pseudomonas aeruginosa [1]): 0.5; Activity (Pseudomonas aeruginosa [2]): Active; Activity (Cell membrane [5]): Active; Activity [8]: Non-Toxic; Activity (Cell membrane [14]): Active; Activity (Cell membrane [15]): Dose-Dependent Effect; Activity [17]: Non-Toxic; Activity (Cell membrane [19]): Active; Activity [23]: Non-Toxic; log(activity) (Pseudomonas aeruginosa [24]): 4.51; Activity [26]: Non-Toxic; fractional inhibitory concentration index (FICI) (Pseudomonas aeruginosa [27]): 1; Activity (Pseudomonas aeruginosa [28]): Active; Activity (Staphylococcus aureus [29]): Active; log(activity) (Staphylococcus aureus [32]): 0.82; Activity (Cell membrane [33]): Active; fractional inhibitory concentration index (FICI) (Staphylococcus aureus [35]): 2; inhibition (INH) (Staphylococcus aureus [36]): 50%
2 | CC(C)C[C@@H](CN(CC(N)=O)S(=O)(=O)c1ccc(C(F)(F)F)cc1)NC(=O)[C@H](CCCCN)NC(=O)[C@H](CCCCN)NC(=O)[C@H](CC(C)C)NC(=O)[C@H](CC(C)C)NC(=O)[C@H](CCCCN)NC(=O)[C@H](CC(C)C)NC(=O)[C@@H](N)Cc1ccccc1 (H-FLKLLKK-X3) | 8 | 4 (≈ 3.19 µM) | 8 (≈ 6.39 µM) | 16 (≈ 12.8 µM) | 50 | Active | 8 (≈ 6.39 µM) | 8 (≈ 6.39 µM) | inactive | 4 (≈ 3.19 µM) | 2.96 | Active | Active | Active | 4 (≈ 3.19 µM) | 20 | 0.25 | 8 | 16 (≈ 12.8 µM) | 8 | fractional inhibitory concentration index (FICI) (Staphylococcus aureus [37]): 0.5; inhibition (INH) (Staphylococcus aureus [36]): 50%

Source: ChEMBL document CHEMBL5537135, “Novel antimicrobial peptides modified with fluorinated sulfono-γ-AA having high stability and targeting multidrug-resistant bacteria infections” (Eur J Med Chem, 2024)
